Laboratory results: PubChem BioAssay (NCI)
Where “and” joins values, the source holds several entries; their conditions need not be identical. Identical values can stand only once.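 1) Cells in 96-well plates. 2) Compound, 48 h, 5 concentrations. 3) Linear interpolation between surrounding doses. 4) Unreached endpoint = highest concentration. Here, GI50 denotes the concentration required for 50% inhibition of growth. TGI denotes the concentration required for complete inhibition of growth.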

What was measured:
Test in all cases: growth of human tumour cells (NCI), 48 h
UACC-62 melanoma = system: UACC-62 melanoma
MOLT-4 leukemia = system: MOLT-4 leukemia
SN12C renal = system: SN12C renal
IGROV1 ovarian = system: IGROV1 ovarian
SK-OV-3 ovarian = system: SK-OV-3 ovarian
U251 CNS = system: U251 CNS
SK-MEL-28 melanoma = system: SK-MEL-28 melanoma
M14 melanoma = system: M14 melanoma
SF-268 CNS = system: SF-268 CNS
HOP-62 NSCLC = system: HOP-62 NSCLC

| Structure (SMILES) | TGI (UACC-62 melanoma) | TGI (MOLT-4 leukemia) [µM] | TGI (SN12C renal) [µM] | TGI (IGROV1 ovarian) | TGI (SK-OV-3 ovarian) | TGI (U251 CNS) | TGI (SK-MEL-28 melanoma) | TGI (M14 melanoma) | TGI (SF-268 CNS) [µM] | TGI (HOP-62 NSCLC) | GI50 (UACC-62 melanoma) [µM] | GI50 (MOLT-4 leukemia) | GI50 (SN12C renal) [µM] | GI50 (IGROV1 ovarian) [µM] | GI50 (SK-OV-3 ovarian) [µM] | GI50 (U251 CNS) [µM] | GI50 (SK-MEL-28 melanoma) [µM] | GI50 (M14 melanoma) [µM] | GI50 (SF-268 CNS) [µM] | GI50 (HOP-62 NSCLC) [µM] |
| --- | --- | --- | --- | --- | --- | --- | --- | --- | --- | --- | --- | --- | --- | --- | --- | --- | --- | --- | --- | --- |
| Cc1nn(-c2ccccc2)c2nc(N3CCOCC3)nnc12 | > 100 µM | > 100 | > 100 | > 100 µM | > 100 µM | > 100 µM | > 100 µM | > 100 µM | > 100 | > 100 µM | – | – | – | – | – | – | – | – | – | – |
| O=c1c2sc(=S)n(-c3ccc(F)cc3)c2ncn1Cc1ccc(F)cc1F | > 100 µM | > 100 | > 100 | > 100 µM | > 100 µM | > 100 µM | > 100 µM | > 100 µM | > 100 | > 100 µM | > 100 | > 100000 nM | > 100 | > 100 | > 100 | > 100 | > 100 | > 100 | 76 | > 100 |
| NC(=Nc1c([N+](=O)[O-])cnc2ccccc12)N1CCOCC1 | > 100 µM | > 100 | > 100 | > 100 µM | > 100 µM | > 100 µM | > 100 µM | > 100 µM | > 100 | > 100 µM | – | – | – | – | – | – | – | – | – | – |
| CNC(=O)N(C)N=NCCCl | > 100 µM | > 100 | > 100 | > 100 µM | > 100 µM | > 100 µM | > 100 µM | > 100 µM | > 100 | > 100 µM | – | – | – | – | – | – | – | – | – | – |
| CO/N=C/c1cc(OC)c(OC)c(OC)c1 | > 100 µM | > 100 | > 100 | > 100 µM | > 100 µM | > 100 µM | > 100 µM | > 100 µM | > 100 | > 100 µM | – | – | – | – | – | – | – | – | – | – |
| CCCCCCCCCCCCOC1C(C(COC2OC(C3COC(C)(C)O3)C3OC(C)(C)OC23)NC(=O)Nc2ccc(C(=O)O)cc2)OC2OC(C)(C)OC21 (stereo unspecified) | 3.56 µM | 8.34 | 12.4 | 4.87 µM | 24 µM | 11.1 µM | 13 µM | 6.71 µM | 13.7 | 10.4 µM | 1.8 | 3290 nM | 3.45 | 2.11 | 11.7 | 3.3 | 3.16 | 2.45 | 3.37 | 3.07 |
| O=C1NC(=O)C(c2cnc3ccccn23)=C1c1cn2c3c(cc(F)cc13)CN(C(=O)N1CCCCC1)CC2 | 22.9 µM | > 81.4 | 54.6 | > 80 µM | 71.9 µM | 24.3 µM | 45 µM | 36.6 µM | 39.4 | 40.4 µM | 7.72 | 3410 nM | 9.54 | 21 | 15.5 | 1.89 | 19.5 | 13.7 | 13.4 | 15 |
| Cn1cc(CO)c2c1C(=O)C=C(N1CC1)C2=O | 0.0163 µM | > 100 | 0.027 | 1.8 µM | 1.31 µM | 0.0726 µM | 0.605 µM | < 0.01 µM | 2.35 | < 0.0116 µM | < 0.01 | 2640 nM | < 0.01 | < 0.0104 | 0.0413 | < 0.01 | < 0.0166 | < 0.01 | < 0.0154 | < 0.01 |
| Cc1nc2c(-c3cnc(N)nc3)nc(N3CCOCC3)nc2n1C(C)C | 0.334 µM and 0.305 µM | > 59.3 | > 100 | 0.262 µM and 0.286 µM | 0.57 µM and 0.226 µM | > 10 µM and 37.7 µM | 0.524 µM and 3.51 µM | 2.12 µM and 5.91 µM | > 100 | 3.5 µM and 0.772 µM | – | 297 nM and 197 nM | – | – | – | – | – | – | – | – |
| Cc1ccc(NC(=O)C(=O)C(C(=O)c2ccc3ccccc3c2)C2OC(=O)c3ccccc32)cc1C (stereo unspecified) | 30.7 µM | 25.9 | 44.8 | 64 µM | > 100 µM | 33.2 µM | 26.9 µM | 32.2 µM | 52.8 | 35.7 µM | – | – | – | – | – | – | – | – | – | – |
| CC(C)c1ccccc1NC(=O)CCc1n[nH]c(=S)o1 | > 100 µM | > 100 | > 100 | > 100 µM | > 100 µM | > 100 µM | > 100 µM | > 100 µM | > 100 | > 100 µM | – | – | – | – | – | – | – | – | – | – |
| CCCCCCNC(=O)c1cc(NCc2cc(O)ccc2O)ccc1O | 14.7 µM | 13.4 | 17.4 | 38.7 µM | > 100 µM | 28.5 µM | 25.4 µM | 25.2 µM | 18.1 | 91.5 µM | 3.78 | 1200 nM | 4.75 | 12.7 | 25.8 | 12.1 | 12.3 | 11.1 | 3.79 | 30 |
| CCOc1ccccc1C=C1c2ccccc2C(=O)c2ccccc21 | > 100 µM | 29.4 | > 100 | > 100 µM | 8.67 µM | > 100 µM | > 100 µM | 64.5 µM | > 100 | 36.3 µM | – | – | – | – | – | – | – | – | – | – |
| CC(O)CCC(=O)c1ccoc1 (stereo unspecified) | > 10000 µM | > 9430 | 9930 | > 10000 µM | > 7940 µM | > 10000 µM | > 8380 µM | > 10000 µM | > 10000 | > 10000 µM | – | – | – | – | – | – | – | – | – | – |
| COc1ccc(C2C(Cl)C(=O)N2n2cnc3ccccc3c2=O)cc1 (stereo unspecified) | > 100 µM | > 100 | > 100 | > 100 µM | > 100 µM | > 100 µM | > 100 µM | 91.6 µM | > 100 | > 100 µM | – | – | – | – | – | – | – | – | – | – |
